Source: patent US8173636B2, “Hydroxylthienoquinolones and related compounds as anti-infective agents” (Achillion Pharmaceuticals, Inc., priority 2009, dated 2012)
Values after ≈ are worked out from the molar mass of the structure shown.

What was measured:
S. aureus ATCC 29213 = experiment: Minimum inhibitory concentration (MIC) assay, broth microdilution, MSSA; assay type: cell-based; settings: Staphylococcus aureus, Table I
Description: (§1) The antimicrobial activity of the compounds of the invention may be evaluated by a number of methods, including the following visual minimum inhibitory concentration (MIC) assay. This assay determines the minimum concentration of compound required to inhibit growth of a bacterial strain.
(§2) Whole-cell antibacterial activity is determined by broth microdilution using conditions recommended by the NCCLS (see National Committee for Clinical Laboratory Standards. 2001. Performance standards for antimicrobial susceptibility testing: 11th informational supplement. Vol. 21, no. 1, M100-S11. National Committee for Clinical Laboratory Standards, Wayne, Pa.). Test compounds are dissolved in DMSO and diluted 1:50 in Mueller-Hinton II broth (Becton-Dickinson) to produce a 256 μg/ml stock solution. In a 96-well microtiter plate, the compound solution is serially two-fold diluted in Mueller-Hinton II broth. After the compounds are diluted, a 50 μl aliquot of the test organism (˜1×10^6 cfu/mL) is added to each well of the microtiter plate. The final test concentrations ranges from 0.125-128 μg/mL. Inoculated plates are incubated in ambient air at 37° C. for 18 to 24 hours. The organisms selected for testing included laboratory strains S. aureus ATCC 29213 and E. coli ATCC 25922 (strains purchased from American Type Culture Collection, Manassas, Va.) m, S. aureus FQR700699, and Paeruginosa 27853. The minimum inhibitory concentration (MIC) is determined as the lowest concentration of compound that inhibited visible growth of the test organism.

[1] = tested on: fluoroquinolone-resistant S. aureus ATCC 700699; experiment: Minimum inhibitory concentration (MIC) assay, broth microdilution, MRSA; assay type: cell-based; settings: Staphylococcus aureus; fluoroquinolone-resistant S. aureus ATCC 700699; Table I; read-out: MRSA MIC
Description: as §1, §2

Row | SMILES | MIC (S. aureus ATCC 29213) [µg/mL] | MIC [1] [µg/mL]
1 | COc1c(N2CCN(CC#N)CC2)c(F)cc2c(=O)c3c(O)c(C#N)sc3n(C3CC3)c12 [Cmp 55, 7-(4-(cyanomethyl)piperazin-1-yl)-9-cyclopropyl-6-fluoro-3-hydroxyl-8-methoxy-4-oxo-4,9-dihydrothieno [2,3-b]quinoline-2-carbonitrile] | 0.06 (≈ 0.132 µM) | 0.5 (≈ 1.1 µM)
2 | COc1c(N2CC[C@@H](c3ncn[nH]3)C2)c(F)cc2c(=O)c3c(n(C4CC4)c12)SC(C#N)C3=O (stereo partly drawn) [Cmp 44, 7-((R)-3-(1H-1,2,4-triazol-5-yl)pyrrolidin-1-yl)-9-cyclopropyl-6-fluoro-8-methoxy-3,4-dioxo-2,3,4,9-tetrahydrothieno [2,3-b]quinoline-2-carbonitrile] | 0.02 (≈ 0.0429 µM) | 0.13 (≈ 0.279 µM)
3 | COc1c(N2CC(O)C2)c(F)cc2c(=O)c3c(O)c(C#N)sc3n(C3CC3)c12 [Cmp 24, 9-cyclopropyl-6-fluoro-3-hydroxyl-7-(3-hydroxylazetidin-1-yl)-8-methoxy-4-oxo-4,9-dihydrothieno[2,3-b]quinoline-2-carbonitrile] | 0.06 (≈ 0.149 µM) | 1 (≈ 2.49 µM)
4 | COc1c(N2CC[C@@H](C(C)(C)N)C2)c(F)cc2c(=O)c3c(O)c(C#N)sc3n(C3CC3)c12 [Cmp 10, (R)-7-(3-(2-aminopropan-2-yl)pyrrolidin-1-yl)-9-cyclopropyl-6-fluoro-3-hydroxyl-8-methoxy-4-oxo-4,9-dihydrothieno [2,3-b]quinoline-2-carbonitrile] | 0.02 (≈ 0.0438 µM) | 0.094 (≈ 0.206 µM)
5 | COc1c(N2CCN(C)CC2)c(F)cc2c(=O)c3c(O)c(C#N)sc3n(C3CC3)c12 [Cmp 26, 9-cyclopropyl-6-fluoro-3-hydroxyl-8-methoxy-7-(4-methylpiperazin-1-yl)-4-oxo-4,9-dihydrothieno[2,3-b] quinoline-2-carbonitrile] | 0.13 (≈ 0.303 µM) | 1 (≈ 2.33 µM)
6 | COc1c(N2CCNCC2)c(F)cc2c(=O)c3c(O)c(C(N)=O)sc3n(C3CC3)c12 [Cmp 25, 9-cyclopropyl-6-fluoro-3-hydroxyl-8-methoxy-4-oxo-7-(piperazin-1-yl)-4,9-dihydrothieno[2,3-b]quinoline-2-carboxamide] | 0.25 (≈ 0.578 µM) | 2 (≈ 4.62 µM)
7 | CO/N=C1\CN(c2c(F)cc3c(=O)c4c(O)c(C#N)sc4n(C4CC4)c3c2OC)CC1CN (stereo not drawn) [Cmp 39, (Z)-7-(3-(aminomethyl)-4-(methoxyimino)pyrrolidin-1-yl)-9-cyclopropyl-6-fluoro-3-hydroxyl-8-methoxy-4-oxo-4,9-dihydrothieno[2,3-b]quinoline-2-carbonitrile] | 0.13 (≈ 0.276 µM) | 1 (≈ 2.12 µM)
8 | COc1c(N2CCC(N)CC2)c(F)cc2c(=O)c3c(O)c(C#N)sc3n(C3CC3)c12 [Cmp 29, 7-(4-aminopiperidin-1-yl)-9-cyclopropyl-6-fluoro-3-hydroxyl-8-methoxy-4-oxo-4,9-dihydrothieno[2,3-b]quinoline-2-carbonitrile] | 0.03 (≈ 0.07 µM) | 0.5 (≈ 1.17 µM)
9 | C[C@H]1COc2c(N3CCNCC3)c(F)cc3c(=O)c4c(n1c23)SC(C#N)C4=O (stereo partly drawn) [Cmp 47, (1S)-5-fluoro-1-methyl-7,8-dioxo-4-(piperazin-1-yl)-2,7,8,9-tetrahydro-1H-[1,4]oxazino[2,3,4-ij]thieno[2,3-b] quinoline-9-carbonitrile] | 1 (≈ 2.5 µM) | 4 (≈ 9.99 µM)
10 | COc1c(-c2cn[nH]c2)c(F)cc2c(=O)c3c(n(C4CC4)c12)SC(C#N)C3=O (stereo not drawn) [Cmp 51, 9-cyclopropyl-6-fluoro-8-methoxy-3,4-dioxo-7-(1H-pyrazol-4-yl)-2,3,4,9-tetrahydrothieno[2,3-b]quinoline-2-carbonitrile] | 0.03 (≈ 0.0757 µM) | 0.5 (≈ 1.26 µM)
11 | COc1c(N2CCNCC2)c(F)cc2c(=O)c3c(O)c(C#N)sc3n(C3CC3)c12 [Cmp 9, 9-cyclopropyl-6-fluoro-3-hydroxyl-8-methoxy-4-oxo-7-(piperazin-1-yl)-4,9-dihydrothieno[2,3-b]quinoline-2-carbonitrile] | 0.06 (≈ 0.145 µM) | 0.75 (≈ 1.81 µM)
12 | CN(C)c1ccc2c(=O)c3c(O)c(C#N)sc3n(C3CC3)c2c1OC(F)F [Cmp 17, 9-cyclopropyl-8-(difluoromethoxy)-7-(dimethylamino)-3-hydroxyl-4-oxo-4,9-dihydrothieno[2,3-b]quinoline-2-carbonitrile] | 4 (≈ 10.2 µM) | 64 (≈ 164 µM)
13 | COc1c(N2CCCC(c3ncn[nH]3)C2)c(F)cc2c(=O)c3c(n(C4CC4)c12)SC(C#N)C3=O (stereo not drawn) [Cmp 53, 7-(3-(1H-1,2,4-triazol-5-yl)piperidin-1-yl)-9-cyclopropyl-6-fluoro-8-methoxy-4-dioxo-2,3,4,9-tetrahydrothieno [2,3-b]quinoline-2-carbonitrile] | 0.13 (≈ 0.271 µM) | 2 (≈ 4.16 µM)
14 | COc1c(N2CCC(c3ncn[nH]3)CC2)c(F)cc2c(=O)c3c(n(C4CC4)c12)SC(C#N)C3=O (stereo not drawn) [Cmp 48, 7-(4-(1H-1,2,4-triazol-5-yl)piperidin-1-yl)-9-cyclopropyl-6-fluoro-8-methoxy-3,4-dioxo-2,3,4,9-tetrahydrothieno [2,3-b]quinoline-2-carbonitrile] | 0.03 (≈ 0.0624 µM) | 0.25 (≈ 0.52 µM)
15 | COc1c(-c2ccnc(C)c2)c(F)cc2c(=O)c3c(O)c(C#N)sc3n(C3CC3)c12 [Cmp 4, 9-cyclopropyl-6-fluoro-3-hydroxyl-8-methoxy-7-(2-methylpyridin-4-yl)-4-oxo-4,9-dihydrothieno[2,3-b]quinoline-2-carbonitrile] | 0.02 (≈ 0.0475 µM) | 0.13 (≈ 0.308 µM)
16 | CN[C@@H](C)[C@@H]1CCN(c2c(F)cc3c(=O)c4c(O)c(C#N)sc4n(C4CC4)c3c2OC)C1 [Cmp 31, 9-cyclopropyl-6-fluoro-3-hydroxyl-8-methoxy-7-((R)-3-((S)-1-(methylamino)ethyl)pyrrolidin-1-yl)-4-oxo-4,9-dihydrothieno [2,3-b]quinoline-2-carbonitrile] | 0.03 (≈ 0.0657 µM) | 0.25 (≈ 0.548 µM)
17 | COc1c(N2CCNCC2)c(F)cc2c(=O)c3c(O)c(S(=O)(=O)c4ccccc4)sc3n(C3CC3)c12 [Cmp 14, 9-cyclopropyl-6-fluoro-3-hydroxyl-8-methoxy-2-(phenylsulfonyl)-methoxy-2-7-(piperazin-1-yl)thieno[2,3-b]quinolin-4(9H)-one] | 1 (≈ 1.89 µM) | 16 (≈ 30.2 µM)
18 | COc1c(N2CC[C@@H](CN)C2)c(F)cc2c(=O)c3c(O)c(C(N)=O)sc3n(C3CC3)c12 [Cmp 61, (S)-7-(3-(aminomethyl)pyrrolidin-1-yl)-9-cyclopropyl-6-fluoro-3-hydroxyl-8-methoxy-4-oxo-4,9-dihydrothieno [2,3-b]quinoline-2-carboxamide] | 0.13 (≈ 0.291 µM) | 0.5 (≈ 1.12 µM)
19 | COc1c(N2CCNCC2)c(F)cc2c(=O)c3c(O)csc3n(C3CC3)c12 [Cmp 8, 9-cyclopropyl-6-fluoro-3-hydroxyl-8-methoxy-7-(piperazin-1-yl)thieno[2,3-b]quinolin-4(9H)-one] | 32 (≈ 82.2 µM) | > 64
20 | COc1c(N2CCNCC2)c(F)cc2c(=O)c3c(O)c(-c4ccc(F)c(F)c4)sc3n(C3CC3)c12 [Cmp 15, 9-cyclopropyl-2-(3,4-difluorophenyl)-6-fluoro-3-hydroxyl-8-methoxy-7-(piperazin-1-yl)thieno[2,3-b]quinolin-4(9H)-one] | 8 (≈ 16 µM) | 4 (≈ 7.98 µM)
21 | COc1c(N2CCCC(CN)C2)c(F)cc2c(=O)c3c(O)c(C(N)=O)sc3n(C3CC3)c12 (stereo not drawn) [Cmp 65, 7-(3-(aminomethyl)piperidin-1-yl)-9-cyclopropyl-6-fluoro-3-hydroxyl-8-methoxy-4-oxo-4,9-dihydrothieno [2,3-b]quinoline-2-carboxamide] | 0.5 (≈ 1.09 µM) | 2 (≈ 4.34 µM)
22 | N#Cc1sc2c(c1O)c(=O)c1ccc(N3CCNCC3)c(OC(F)F)c1n2C1CC1 [Cmp 16, 9-cyclopropyl-8-(difluoromethoxy)-3-hydroxyl-4-oxo-7-(piperazin-l-yl)-4,9-dihydrothieno[2,3-b]quinoline-2-carbonitrile] | 4 (≈ 9.25 µM) | 64 (≈ 148 µM)
23 | N#CCN1CCN(c2c(F)cc3c(=O)c4c(O)c(C#N)sc4n(C4CC4)c3c2OC(F)F)CC1 [Cmp 18, 7-(4-(cyanomethyl)piperazin-1-yl)-9-cyclopropyl-8-(difluoromethoxy)-6-fluoro-3-hydroxyl-4-oxo-4,9-dihydrothieno [2,3-b]quinoline-2-carbonitrile] | 0.13 (≈ 0.266 µM) | 4 (≈ 8.17 µM)
24 | COc1c(N2CCNCC2)c(F)cc2c(=O)c3c(O)c(C(=O)C(F)(F)F)sc3n(C3CC3)c12 [Cmp 20, 9-cyclopropyl-6-fluoro-3-hydroxyl-8-methoxy-7-(piperazin-1-yl)-2-(2,2,2-trifluoroacetyl)thieno[2,3-b]quinolin-4(9H)-one] | 64 (≈ 132 µM) | > 64
25 | COc1c(N2CCNC(C(N)=O)C2)c(F)cc2c(=O)c3c(n(C4CC4)c12)SC(C#N)C3=O (stereo not drawn) [Cmp 52, 4-(2-cyano-9-cyclopropyl-6-fluoro-8-methoxy-3,4-dioxo-2,3,4,9-tetrahydrothieno[2,3-b]quinolin-7-yl) piperazine-2-carboxamide] | 0.25 (≈ 0.546 µM) | 2 (≈ 4.37 µM)
26 | COc1c(N2CC[C@H](N)C2)c(F)cc2c(=O)c3c(O)c(C#N)[nH]c3n(C3CC3)c12 [Cmp 28, (S)-7-(3-aminopyrrolidin-l-yl)-9-cyclopropyl-6-fluoro-3-hydroxyl-8-methoxy-4-oxo-4,9-dihydro-1H-pyrrolo[2,3-b]quinoline-2-carbonitrile] | 64 (≈ 161 µM) | 
